Source: US9422265B2, “Process for the preparation of 3-(3-chloro-1H-pyrazol-1-yl)pyridine” (Dow AgroSciences LLC, priority 2014, dated 2016)

How the values were obtained:
[1] = test system: Green Peach Aphid (Myzus persicae) (MYZUPE); experiment: Bioassay on Green Peach Aphid (GPA), cabbage seedling foliar spray; format: in vivo; settings: 72 h, 200 ppm spray on cabbage seedlings, graded after three days, live aphids, Abbott's correction, read-out: MYZUPE rating (% Control of Mortality)
Experimental: Example A Bioassays on Green Peach Aphid (“GPA”) (Myzus persicae) (MYZUPE.)
Several molecules disclosed herein were tested against GPA using procedures described below.
Cabbage seedling grown in 3-in pots, with 2-3 small (3-5 cm) true leaves, were used as test substrate. The seedlings were infested with […] (wingless adult and nymph stages) one day prior to chemical application. Four posts with individual seedlings were used for each treatment. Test compounds (2 mg) were dissolved in 2 mL of acetone/methanol (1:1) solvent, forming stock solutions of 1000 ppm test compound. The stock solutions were diluted 5× with 0.025% Tween 20 in water to obtain the solution at 200 ppm test compound. A hand-held aspirator-type sprayer was used for spraying a solution to both sides of the cabbage leaves until runoff. Reference plants (solvent check) were sprayed with the diluent only containing 20% by volume acetone/methanol (1:1) solvent. Treated plants were held in a holding room for three days at approximately 25° C. and ambient relative humidity (RH) prior to grading. Evaluation was conducted by counting the number of live aphids per plant under a microscope. Percent Control was measured by using Abbott's correction formula (W. S. Abbott, “A Method of Computing the Effectiveness of an Insecticide” J. Econ. Entomol 18 (1925), pp. 265-267) as follows. […]

[2] = test system: Sweetpotato Whitefly Crawler (Bemisia tabaci) (BEMITA); experiment: Bioassay on Sweetpotato Whitefly Crawler, cotton plant foliar spray; format: in vivo; settings: 200 ppm spray on cotton plants, graded after 8-9 days, live nymphs, Abbott's correction, read-out: BEMITA rating (% Control of Mortality)
Description: Example B Bioassays on Sweetpotato Whitefly Crawler (Bemisia tabaci) (BEMITA.)
Cotton plants grown in 3-inch pots, with 1 small (3-5 cm) true leaf, were used at test substrate. The plants were placed in a room with whitefly adults. Adults were allowed to deposit eggs for 2-3 days. After a 2-3 day egg-laying period, plants were taken from the adult whitefly room. Adults were blown off leaves using a hand-held Devilbliss sprayer (23 psi). Plants with egg infestation (100-300 eggs per plant) were placed in a holding room for 5-6 days at 82° F. and 50% RH for egg hatch and crawler stage to develop. Four cotton plants were used for each treatment. Compounds (2 mg) were dissolved in 1 mL of acetone solvent, forming stock solutions of 2000 ppm. The stock solutions were diluted 10× with 0.025% Tween 20 in water to obtain a test solution at 200 ppm. A hand-held Devilbliss sprayer was used for spraying a solution to both sides of cotton leaf until runoff. Reference plants (solvent check) were sprayed with the diluent only. Treated plants were held in a holding room for 8-9 days at approximately 82° F. and 50% RH prior to grading. Evaluation was conducted by counting the number of live nymphs per plant under a microscope.

Structure (SMILES) | mortality at 200 ppm [1] [%] | mortality at 200 ppm [2] [%]
CCN(C(=O)CC[S+]([O-])CCC(F)(F)F)c1cn(-c2cccnc2)nc1Cl (stereo not shown) [Compound 2-12, N-(3-chloro-1-(pyridin-3-yl)-1H-pyrazol-4-yl)-N-ethyl-3-((3,3,3-trifluoropropyl)sulfoxo)propanamide] | 80 to 100 | 80 to 100
CCN(C(=O)CCSCCC(F)(F)F)c1cn(-c2cccnc2)nc1Cl [Compound 2-11, N-(3-chloro-1-(pyridin-3-yl)-1H-pyrazol-4-yl)-N-ethyl-3-((3,3,3-trifluoropropyl)thio)propanamide] | 80 to 100 | 80 to 100
